Reference: patent US20250129056A1, “PROCESS FOR PREPARING HISTONE DEMETHYLASE INHIBITORS” (Celgene Corporation, priority 2021, published 2025)
Converted amounts (≈) assume the structure as drawn.

Columns and labels:
[1] = Solubility observations in water and common organic solvents; format: physicochemical
[2] = Solubility of Compound 12 in common solvents (Table 5); format: physicochemical; settings: organic solvent or mixture
Source text: The crystallization of Compound 12 also required optimization. Studies were undertaken to find the optimal solvent system of iPrOH/MeTHF.

[3] = system: KDM4 family of histone demethylases; settings: cited from earlier work

## CC(C)(C)OC(=O)NC[C@@H]1CCOc2cc(Br)ccc21 [Compound 11]
[1]; in a number of common organic solvents including heptane
  solubility: high

## CC(C)c1ccc(N(C)c2ccc3c(c2)OCC[C@H]3CNC(=O)OC(C)(C)C)cc1 [Compound 12]
[2]; solvent 1-PrOH
  solubility: 5 mg/mL (≈ 12.2 mM)
[2]; solvent 2-MeTHF
  solubility: 63 mg/mL (≈ 153 mM)
[2]; solvent CPMe
  solubility: 26 mg/mL (≈ 63.3 mM)
[2]; solvent DMAc
  solubility: 77 mg/mL (≈ 188 mM)
[2]; solvent EtOAc
  solubility: 22 mg/mL (≈ 53.6 mM)
[2]; solvent HOAC
  solubility: 20 mg/mL (≈ 48.7 mM)
[2]; solvent IPA
  solubility: 3 mg/mL (≈ 7.31 mM)
[2]; solvent IPAc
  solubility: 14 mg/mL (≈ 34.1 mM)
[2]; solvent MEK
  solubility: 28 mg/mL (≈ 68.2 mM)
[2]; solvent MIBK
  solubility: 17 mg/mL (≈ 41.4 mM)
[2]; solvent MTBE
  solubility: 11 mg/mL (≈ 26.8 mM)
[2]; solvent MeCN
  solubility: 5 mg/mL (≈ 12.2 mM)
[2]; solvent MeOH
  solubility: 3 mg/mL (≈ 7.31 mM)
[2]; solvent THF
  solubility: ≥ 150 mg/mL
[2]; solvent toluene
  solubility: 27 mg/mL (≈ 65.8 mM)
[1]; in a number of common solvents
  solubility: low

## CC(C)c1ccc(N(C)c2ccc3c(c2)OCC[C@H]3CNc2cnccc2C(=O)O)cc1 [Compound 8, 3-({[(4R)-7-{methyl[4-(propan-2-yl)phenyl]amino}-3,4-dihydro-2H-1-benzopyran-4-yl]methyl}amino)pyridine-4-carboxylic acid]
[3]
  inhibition of the KDM4 family of histone demethylases: selective inhibitor
[1]; in most common solvents
  solubility: poor
[1]; in water (low to neutral pH) and most common organic solvents, free acid
  solubility: undetectable
[1]; in water and most common organic solvents
  solubility: poor
